Measurements as given in patent US9113629B2, “4-amino-6-(4-substituted-phenyl)-picolinates and 6-amino-2-(4-substituted-phenyl)-pyrimidine-4-carboxylates and their use as herbicides” (DOW AGROSCIENCES LLC, priority 2013, dated 2015).
Like-named read-outs stand apart in the source and are kept apart here.

Key:
[1] = system: Key Broadleaf Weed and Crop Species; assay: Post-emergent Test II herbicidal activity (Table 5); type: in vivo; details: post-emergence, 336 h, post-emergent, 14 days after application; for pest or weed control at 70 g/ha: 70 g ai/ha; for pest or weed control at 140 g/ha: 140 g ai/ha
Procedure, shortened: (§1)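 Visual injury ratings (0 = no injury, 100 = complete kill) were taken 14 d after treatment, relative to untreated plants. Seedlings at the first–second true leaf stage received overhead spray at 187 L/ha; the highest rate was serially diluted to ½×, ¼×, ⅛× and 1/16×.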

[2] = system: Key Grass and Sedge Weeds as well as Grass Crops; assay: Post-emergent Test II herbicidal activity (Table 6); type: in vivo; details: post-emergence, 336 h; for pest or weed control at 70 g/ha: application rate 70 g ai/ha; for pest or weed control at 140 g/ha: application rate 140 g ai/ha
Procedure, shortened: as §1

[3] = ABUTH: velvetleaf (Abutilon theophrasti), read-out: Visual Growth Reduction (%) 14 Days After Application ABUTH
[4] = AMARE: redroot pigweed (Amaranthus retroflexus), read-out: Visual Growth Reduction (%) 14 Days After Application AMARE
[5] = BRSNN: oilseed-rape, canola (Brassica napus), read-out: Visual Growth Reduction (%) 14 Days After Application BRSNN
[6] = CHEAL: lambsquarters (Chenopodium album), read-out: Visual Growth Reduction (%) 14 Days After Application CHEAL
[7] = EPHHL: wild poinsettia (Euphorbia heterophylla), read-out: Visual Growth Reduction (%) 14 Days After Application EPHHL
[8] = HELAN: sunflower (Helianthus annuus), read-out: Visual Growth Reduction (%) 14 Days After Application HELAN
[9] = VIOTR: wild pansy (Viola tricolor), read-out: Visual Growth Reduction (%) 14 Days After Application VIOTR
[10] = Triticum aestivum, TRZSS (wheat), read-out: Visual Growth Reduction (%) 14 Days After Application, TRZSS
[11] = CYPES: yellow nutsedge (Cyperus esculentus), read-out: Visual Growth Reduction (%) 14 Days After Application, CYPES
[12] = DIGSA: crabgrass (Digitaria sanguinalis), read-out: Visual Growth Reduction (%) 14 Days After Application, DIGSA
[13] = ECHCG: barnyardgrass (Echinochloa crus-galli), read-out: Visual Growth Reduction (%) 14 Days After Application, ECHCG
[14] = ORYSA: rice (Oryza sativa), read-out: Visual Growth Reduction (%) 14 Days After Application, ORYSA
[15] = SETFA: giant foxtail (Setaria faberi), read-out: Visual Growth Reduction (%) 14 Days After Application, SETFA
[16] = SORVU: grain sorghum (Sorghum vulgare), read-out: Visual Growth Reduction (%) 14 Days After Application, SORVU
[17] = ZEAMX: maize, corn (Zea mays), read-out: Visual Growth Reduction (%) 14 Days After Application, ZEAMX

Compound	pest or weed control at 70 g/ha [1, 3] [%]	pest or weed control at 140 g/ha [1, 3] [%]	pest or weed control at 70 g/ha [1, 4] [%]	pest or weed control at 140 g/ha [1, 4] [%]	pest or weed control at 70 g/ha [1, 5] [%]	pest or weed control at 140 g/ha [1, 5] [%]	pest or weed control at 70 g/ha [1, 6] [%]	pest or weed control at 140 g/ha [1, 6] [%]	pest or weed control at 70 g/ha [1, 7] [%]	pest or weed control at 140 g/ha [1, 7] [%]	pest or weed control at 70 g/ha [1, 8] [%]	pest or weed control at 140 g/ha [1, 8] [%]	pest or weed control at 70 g/ha [1, 9] [%]	pest or weed control at 140 g/ha [1, 9] [%]	pest or weed control at 70 g/ha [2, 10] [%]	pest or weed control at 140 g/ha [2, 10] [%]	pest or weed control at 70 g/ha [2, 11] [%]	pest or weed control at 140 g/ha [2, 11] [%]	pest or weed control at 140 g/ha [2, 12] [%]	pest or weed control at 70 g/ha [2, 13] [%]	further results
COC(=O)c1nc(-c2cc(F)c(Br)cc2F)nc(N)c1OC [Compound 2]	95 to 100	95 to 100	85 to 94	85 to 94	95 to 100	95 to 100	95 to 100	95 to 100	95 to 100	95 to 100	95 to 100	95 to 100	30 to 44	95 to 100	45 to 59	45 to 59	60 to 74	60 to 74	60 to 74	60 to 74	pest or weed control at 140 g/ha [2, 13]: 60 to 74%; pest or weed control at 70 g/ha [2, 14]: 0 to 29%; pest or weed control at 140 g/ha [2, 14]: 0 to 29%; pest or weed control at 70 g/ha [2, 15]: 45 to 59%; pest or weed control at 140 g/ha [2, 15]: 60 to 74%; pest or weed control at 70 g/ha [2, 16]: 30 to 44%; pest or weed control at 140 g/ha [2, 16]: 60 to 74%; pest or weed control at 70 g/ha [2, 17]: 75 to 84%; pest or weed control at 140 g/ha [2, 17]: 75 to 84%
Nc1cc(-c2cc(F)c(Br)cc2F)nc(C(=O)O)c1Cl [Compound 3]	95 to 100	95 to 100	95 to 100	95 to 100	85 to 94	95 to 100	95 to 100	95 to 100	95 to 100	95 to 100	85 to 94	85 to 94	95 to 100	95 to 100	60 to 74	60 to 74	95 to 100	95 to 100	85 to 94	85 to 94	pest or weed control at 70 g/ha [2, 12]: 75 to 84%; pest or weed control at 140 g/ha [2, 13]: 85 to 94%; pest or weed control at 70 g/ha [2, 14]: 30 to 44%; pest or weed control at 140 g/ha [2, 14]: 45 to 59%; pest or weed control at 70 g/ha [2, 15]: 95 to 100%; pest or weed control at 140 g/ha [2, 15]: 95 to 100%; pest or weed control at 70 g/ha [2, 16]: 85 to 94%; pest or weed control at 140 g/ha [2, 16]: 85 to 94%; pest or weed control at 70 g/ha [2, 17]: 85 to 94%; pest or weed control at 140 g/ha [2, 17]: 85 to 94%
COc1c(N)nc(-c2cc(F)c(Br)cc2F)nc1C(=O)O [Compound 11]	95 to 100	95 to 100	95 to 100	95 to 100	95 to 100	95 to 100	95 to 100	95 to 100	95 to 100	95 to 100	95 to 100	95 to 100	0 to 29	45 to 59	45 to 59	60 to 74	45 to 59	45 to 59	60 to 74	85 to 94	pest or weed control at 70 g/ha [2, 12]: 60 to 74%; pest or weed control at 140 g/ha [2, 13]: 85 to 94%; pest or weed control at 70 g/ha [2, 14]: 0 to 29%; pest or weed control at 140 g/ha [2, 14]: 0 to 29%; pest or weed control at 70 g/ha [2, 15]: 60 to 74%; pest or weed control at 140 g/ha [2, 15]: 60 to 74%; pest or weed control at 70 g/ha [2, 16]: 60 to 74%; pest or weed control at 140 g/ha [2, 16]: 75 to 84%; pest or weed control at 70 g/ha [2, 17]: 60 to 74%; pest or weed control at 140 g/ha [2, 17]: 60 to 74%
